Test results: US11634452B2, “Compounds for treating neurodegenerative disorders” (ETHNODYNE, priority 2017, dated 2023)

Assays:
Type in all cases: cell-based
[1] = test system: primary rat cortical neurons injured with Aβ1-42; test: Neuroprotective effect on an in vitro model of Alzheimer disease
Method: These peptides contribute to cerebrovascular lesions and are neurotoxic. This study investigated the neuroprotective effect of the plant extract of the invention on rat primary cortical cultures following exposure to Aβ1-42 in an in vitro AD model (Callizot. N., et al., 2013).
Rat cortical neurons were cultured as described in Example 6.
The cortical neurons were intoxicated with amyloid beta peptides solutions after 11 days of culture in presence of tested compound CR777.
Briefly, Aβ1-42 peptide (Batch: APN09080-1-1, Abcam, United Kingdom) was dissolved in the defined culture medium B27 mentioned above, devoid of serum, at an initial concentration of 40 μmol/L. This solution was gently agitated for 3 days at 37° C. in the dark and immediately used after being properly diluted in culture medium to the concentrations used (20 μM corresponding to 2 μM of AβO, measuring by WB, for survival, neurite network, tau phosphor and caspase 3 activation and 2.5 μM corresponding to 0.25 μM of AβO, for synapses evaluation).
CR777 was solved in DMSO at 10 mM and diluted in culture medium at different concentrations (see table below). The compound was tested on one primary cortical culture in 96 well plates (6 wells per conditions), and was pre-incubated 1 hour before Aβ1-42 application for 24 hours.
24 hours after intoxication, the cell culture supernatant was taken off and the cortical neurons were fixed by a cold solution of ethanol (95%) and acetic acid (5%) for 5 min at −20° C. • Plate 1: Immunostainning (MAP-2/Tau Phosphor)
After permeabilization with 0.1% of saponin, cells were incubated for 2 hours with a) a mouse monoclonal antibody anti phosphoT at dilution of 1/400 in PBS containing 1% fetal calf serum and 0.1% of saponin and b) a chicken polyclonal antibody anti microtubule-associated-protein 2 (MAP-2) at dilution of 1/1000 in PBS containing 1% fetal calf serum and 0.1% of saponin (this antibody stains specifically cell bodies and neurites, allowing study of neuronal cell survival and neurite network).
(§1) For each condition, 30 pictures/well (representative of ˜the all well area) were taken automatically using ImageXpress (Molecular Devices) with 20× magnification. All images were taken with the same conditions. Analysis were performed automatically by using Custom Module Editor (Molecular Devices).
The following endpoints were investigated per culture well: • The total neuron survival (MAP-2 staining), • The neurite network (MAP-2 staining) and • hyperphophorylation of T protein (pT) into neurons (pT/MAP-2). • Plate 2: Immunostainning (MAP-2/Caspase 3)
as §1, with “Devices). • The total number of caspase 3 positive neuron (overlapping caspase3/MAP-2) were investigated per culture well:” for “Devices).”
Data is expressed in percentage of control conditions (no injury, no compound=100%). All values are expressed as mean+/−SEM (standard error of the mean) from 6 wells per condition per culture. Neuro-Sys performed graphs and statistical analyses on the different conditions (ANOVA followed by Dunnett's test when allowed, using GraphPad Prism software version 5.0).

[2] = test system: human HCT-116 colorectal carcinoma; test: Cytotoxicity test, cell growth inhibition by MTS assay; conditions: HCT-116, 72 h incubation, 8 concentrations
Method: (§2) Human MRC-5 cell line derived from normal lung tissue and human HCT-116 colorectal carcinoma were obtained from the American Type Culture Collection (ATCC, Rockville, Md.). Primary Human Umbilical Vein Endothelial Cells (HUVEC) isolated from the vein of the umbilical cord were obtained from Promocell (Germany). Cell lines were cultured according to the supplier's instructions. Human HCT-116 cells were grown in Gibco McCoy's 5A supplemented with 10% fetal calf serum (FCS) and 1% glutamine. Human MRC-5 cells were grown in DMEM supplemented with 10% fetal calf serum (FCS) and 1% glutamine. HUVECs were grown in Endothelial Cell Growth Medium 2 which is low-serum (2% V/V) media optimized for the cultivation of endothelial cells from large blood vessels.
(§3) Cells were counted using a Vi-cell XR (Beckman Coulter) and their viability assessed by 0.25% trypan blue dye exclusion. They were tested for the presence of mycoplasma before experiments with the Mycoplasma PCR Detection Kit (Applied Biological Materials Inc., Canada) in accordance with the manufacturer instructions and only mycoplasma-free cells were used for further investigations.
(§4) Cell lines were maintained at 37° C. in a humidified atmosphere containing 5% CO2. Cell growth inhibition was determined by an MTS assay according to the manufacturer's instructions (Promega, Madison, Wis., USA). […] After 24 h of culture, the cells were treated with the compound CR777 of example 1 at 8 different final concentrations. Each concentration was obtained from serial dilutions in culture medium starting from the stock solution. Control cells were treated with the vehicle. Experiments were performed in triplicate.
(§5) After 72 h of incubation, 20 μL of CellTiter 96® AQueous One Solution Reagent was added for 2 h before recording absorbance at 490 nm with a spectrophotometric plate reader. The dose-response curves were plotted with Graph Prism software and the IC50 values were calculated using the Graph Prism software from polynomial curves (four or five-parameter logistic equations).

[3] = test system: Primary Human Umbilical Vein Endothelial Cells (HUVEC); test: as above; conditions: 72 h incubation, 8 concentrations
Method: as §2, §3, §4, §5

[4] = test system: Human MRC-5 cell line derived from normal lung tissue; test: as above; conditions: MRC-5, 72 h incubation, 8 concentrations
Method: as §2, §3, §4, §5

[5] = test system: primary rat cortical neurons injured with glutamate; test: Effect in rat primary cortical neurons after glutamate injury
Method: A., et al., 1999. J Neurosci 19: 2455-2463 and Callizot.
The medium was changed every 2 days. The cortical neurons were intoxicated with glutamate solution.
The following conditions were assessed: • Control (culture medium) • + glutamate (40 μM, 20 min) • + glutamate (40 μM, 20 min)+CR777 (at each concentration)

[6] = CR777 1 nM to 1 μM added 1 h before Aβ1-42 (20 μM, 24 h)
[7] = CR777 all doses (1 nM to 1 μM), Aβ1-42 20 μM, 24 h

**Q.** Which neurite network [1, 6] does the source give for `CC1=C(CO)C(=O)O[C@@H]([C@@H](C)[C@H]2CCC3C4C[C@H](SC[C@H](NC(=O)CC[C@@H](N)C(=O)O)C(=O)NCC(=O)O)[C@]5(O)[C@@H](O)C=CC(=O)[C@]5(C)C4CC[C@@]32C)C1` (stereo partly shown) [CR777] here?
**A.** significant protective effect

**Q.** What about the neuron survival [1, 6] of the same molecule?
**A.** significant protective effect

**Q.** And the “caspase 3 activation” value [1, 7]?
**A.** decrease of caspase 3 activation

**Q.** What about the tau hyperphosphorylation [1, 7] of the same molecule?
**A.** significant decrease

**Q.** And the “toxicity (cell growth inhibition, MTS)” value [2]?
**A.** does not show any toxicity

**Q.** What about the “toxicity (cell growth inhibition, MTS)” value [3] of the same molecule?
**A.** does not show any toxicity

**Q.** And the “toxicity (cell growth inhibition, MTS)” value [4]?
**A.** does not show any toxicity

**Q.** What about the neurite network ([5]; CR777 1 pmol/L to 10 μmol/L overall, glutamate 40 μM, 20 min) of the same molecule?
**A.** moderate neuroprotective effect

**Q.** And the neuron survival ([5]; CR777 100 pM, added 1 h before glutamate (40 μM, 20 min) and let for 48 h)?
**A.** significantly protected neurons from death

**Q.** And the neuron survival ([5]; CR777 from 1 nM up to 1 μM, glutamate 40 μM, 20 min)?
**A.** full protection

**Q.** And the “concentration at which the maximal effect on neurite network was observed” value ([5]; glutamate 40 μM, 20 min)?
**A.** 1 µM

**Q.** What about the “concentration at which the maximal effect on neuron survival was reached” value ([5]; glutamate 40 μM, 20 min, dose dependent) of the same molecule?
**A.** 10 nM

**Q.** And the neurite network ([5]; only the doses of 10, 100 pM and 1 μM, glutamate 40 μM, 20 min)?
**A.** significantly protected the neurite network
